7 compounds from US5516796A, “Thioprostaglandins and -prostaglandin-like compounds and therapeutic uses thereof” (Kabi Pharmacia AB, priority 1994, dated 1996) can be followed below.

Data set [1] has as its system circular preparation of the guinea pig ileum. In words: In vitro bioassay, guinea pig ileum circular preparation. From the text:
(§1) In vitro bioassay studies of thioprostaglandins according to this invention have shown that such thioprostaglandins exert biological effects on several mammalian tissues and organ systems. […] These biological effects have no known relationship to the IOP lowering effects of these prostaglandins.

A further data set deals with bovine iris sphincter. In words: In vitro bioassay, bovine iris sphincter.
Text: as §1

A further data set has as its system rat gastric fundus. Kind of data set: In vitro bioassay, rat gastric fundus.
Text: as §1

Another data set deals with platelet aggregation. Kind of data set: In vitro bioassay, platelet aggregation. The data set is classed as cell-based.
Text: as §1

Data set [2] concerns eye. Kind of data set: Ocular irritation (discomfort) after topical application, scale 0-3. As to conditions: for Maximum ocular irritation, Difference (experimental vs contralateral control eye): cats, topical, mean ± SEM, n = 6; for Ocular irritation grade (maximum irritation): same test system. The format is in vivo, cats. How it is done: (§2) Experiments were performed in cats and rabbits. The test compounds were administered topically to the eye. The compounds were tested by using a single dose of each concentration. The intraocular pressure in cats was measured with a pneumotonometer (Digilab Modular One, BioRad). Before the measurement the cornea was anaesthetized with 1-2 drops of oxibuprocain. The ocular irritation (discomfort) caused by the test compounds was assessed without anaesthesia in the same animals. The irritation was graded on an arbitrary scale 0-3, 0 indicating absence of irritation, and 3 indicating maximum irritation as obvious from complete lid closure. Surface hyperemia of the eye (redness of the eye) was evaluated in rabbits. The eye was photographed at regular intervals and the degree of hyperemia was evaluated from the color photographs in a masked way. The hyperemia was evaluated on an arbitrary scale 0-5, 0 indicating absence of hyperemia and 5 marked hyperemia and conjunctival chemosis. All compounds were formulated in physiologic saline using polysorbate 80 as solubilizer. The same volume of the vehicle only was applied topically on the contralateral control eye.
Maximum ocular irritation after topical
application of different thioprostaglandin compounds in
cats. The values represent the difference between the
experimental and contralateral control eyes (Mean ± SEM,

The test system of data set [3] is eye. In words: Maximum reduction of intraocular pressure in cats after topical application. The format is in vivo. As to conditions: for Intraocular pressure, Exp Eye / Maximum reduction of intraocular pressure, Difference (Exp Eye vs Cont Eye): 1-3 hours after application, mean ± SEM, n = 6. As to the method:
as §2
Maximum reduction of intraocular pressure in cats 1-3 hours after
application of different thioprostaglandin compounds (Mean ± SEM; n =

The next data set has as its system cat iris sphincter. Kind of data set: In vitro bioassay, cat iris sphincter.
Text: as §1

In data set [4] the test system is eye. In words: Surface hyperemia of the eye after topical application, scale 0-5. The data set is classed as in vivo, rabbits. As to conditions: 0.5 μg; for Maximum surface hyperemia of the eye, Difference (Exp Eye vs Cont Eye) / Maximum surface hyperemia of the eye, Exp Eye: rabbits, topical, mean ± SEM, n = 6; for Ocular surface hyperemia grade: same test system. As to the method: as §2
Maximum surface hyperemia of the eye after
topical application of different thioprostaglandins in
rabbits. (Mean ± SEM, n = 6).

Regarding `CCCCC[C@H](O)/C=C/[C@H]1C(SCc2ccccc2)CC(=O)[C@@H]1C/C=C\CCCC(=O)OCc1ccccc1` (some centres unmarked) [Compound 3, 11-deoxy-11-thiobenzyl-PGE2 benzyl ester], the “Stimulation of the circular preparation of the guinea pig ileum” value in data set [1] is “stimulate”. The “Stimulation of the bovine iris sphincter” value in the data set on bovine iris sphincter is “stimulate”. The “Stimulation of the rat gastric fundus” value with rat gastric fundus is on record as “stimulate”. Further, the “Effect on platelet aggregation” value with platelet aggregation is “affect platelet aggregation”. The “Maximum ocular irritation, Difference (experimental vs contralateral control eye)” value (from here on “Maximum ocular irritation, Difference”) in the data set on eye [2] (3 μg) is on record as 0.08 ± -0.08; in the data set with eye [2] (5 μg), 1.33 ± -0.1. For the same compound, the “Intraocular pressure, Exp Eye” value in the data set with eye [3] (3 ug) stood at 14.7 ± -0.7 mmHg; in the data set on eye [3] (5 ug) it was 13.0 ± -0.4 mmHg. The “Maximum reduction of intraocular pressure, Difference (Exp Eye vs Cont Eye)” value with eye [3] (3 ug) is -3.7 ± -1.3 mmHg; in the data set with eye [3] (5 ug), -3.8 ± -0.5 mmHg. Also, the “24 hour reduction of the intraocular pressure (in words)” value in the data set on eye [3] (24 hour) is listed as “Except for compound 3, all compounds caused 24 hour reduction of the intraocular pressure”. In the data set with cat iris sphincter, the “Stimulation of the cat iris sphincter” value was “stimulate”.

Regarding `CCCCC[C@H](O)/C=C/[C@H]1C(SCC(N)C(=O)OCC)CC(=O)[C@@H]1C/C=C\CCCC(=O)OCc1ccccc1` (some centres unmarked) [Compound 4], the “Stimulation of the circular preparation of the guinea pig ileum” value in data set [1] is given as “stimulate”. Further, the “Stimulation of the bovine iris sphincter” value in the data set on bovine iris sphincter is “stimulate”. For the same compound, the “Stimulation of the rat gastric fundus” value in the data set on rat gastric fundus is recorded as “stimulate”. Further, the “Effect on platelet aggregation” value with platelet aggregation was “affect platelet aggregation”. Besides, the “Maximum ocular irritation, Difference” value in the data set with eye [2] (3 μg) worked out at 0.75 ± -0.1; in the data set on eye [2] (10 μg), 0.58 ± -0.08. Also, the “Intraocular pressure, Exp Eye” value in the data set with eye [3] (3 ug) turned out to be 16.3 ± -0.7 mmHg; in the data set on eye [3] (10 ug) it was 14.0 ± -0.7 mmHg. Moreover, the “Maximum reduction of intraocular pressure, Difference (Exp Eye vs Cont Eye)” value with eye [3] (3 ug) was -4.3 ± -1.6 mmHg; with eye [3] (10 ug), -5.8 ± -1.1 mmHg. Further, the “Stimulation of the cat iris sphincter” value in the data set on cat iris sphincter was “stimulate”.

Take `CCCCC[C@H](O)/C=C/[C@H]1C(SCCC(=O)OCC)CC(=O)[C@@H]1C/C=C\CCCC(=O)OC` (some centres unmarked) [Compound 5, 11-Deoxy-11-[3-thio-(1-ethylpropionate)] PGE2 methyl ester]: the “Maximum ocular irritation, Difference” value with eye [2] (1 μg) came to 1.08 ± -0.2; in the data set on eye [2] (3 μg), 0.58 ± -0.08; in the data set on eye [2] (10 μg), 2.00 ± -0.1. Also, in the data set on eye [3], the “Reduction of intraocular pressure (in words)” value is reported as “The strongest effect”. Besides, the “Reduction of intraocular pressure at low dose (in words)” value in the data set with eye [3] (1 μg) is on record as “markedly reduced the pressure”. Also, the “Intraocular pressure, Exp Eye” value in the data set on eye [3] (1 ug) stood at 12.7 ± -1.0 mmHg; in the data set with eye [3] (3 ug), 11.5 ± -1.6 mmHg; in the data set with eye [3] (10 ug), 12.3 ± -1.3 mmHg. Further, the “Maximum reduction of intraocular pressure, Difference (Exp Eye vs Cont Eye)” value is -9.5 ± -0.8 mmHg in the data set on eye [3] (1 ug), -9.2 ± -1.2 mmHg in the data set with eye [3] (3 ug) and -10.0 ± -0.9 mmHg in the data set with eye [3] (10 ug). Besides, the “Maximum surface hyperemia of the eye, Difference (Exp Eye vs Cont Eye)” value in the data set on eye [4] amounted to 0.3 ± -0.2. Also, the “Maximum surface hyperemia of the eye, Exp Eye” value in the data set with eye [4] turned out to be 1.1 ± -0.2.

With `CCCCC[C@H](O)/C=C/[C@H]1C(SCCO)CC(=O)[C@@H]1C/C=C\CCCC(=O)OC` (some centres unmarked) [Compound 6, 11-Deoxy-11-(thio-1-ethanol)-PGE2 methyl ester], the “Maximum ocular irritation, Difference” value in the data set with eye [2] (1 μg) is reported as 0.92 ± -0.08. Moreover, in the data set on eye [2] (3 μg), the “Maximum ocular irritation, Difference” value was 0.67 ± -0.1. Also, in the data set on eye [3] (1 ug), the “Intraocular pressure, Exp Eye” value was determined as 14.7 ± -1.0 mmHg and the “Maximum reduction of intraocular pressure, Difference (Exp Eye vs Cont Eye)” value is on record as -5.8 ± -1.0 mmHg. In addition, in the data set with eye [3] (3 ug), the “Intraocular pressure, Exp Eye” value worked out at 13.8 ± -0.9 mmHg and the “Maximum reduction of intraocular pressure, Difference (Exp Eye vs Cont Eye)” value is listed as -6.0 ± -1.3 mmHg. In addition, in the data set with eye [4], the “Maximum surface hyperemia of the eye, Difference (Exp Eye vs Cont Eye)” value was 0.8 ± -0.1 and the “Maximum surface hyperemia of the eye, Exp Eye” value is listed as 1.7 ± -0.1.

For the compound `CCCCC[C@H](O)/C=C/[C@H]1C(Sc2ccccc2C(=O)OC)CC(=O)[C@@H]1C/C=C\CCCC(=O)OC` (some centres unmarked) [Compound 7, 11-Deoxy-11-[thio-2-(methylbenzoate)-]PGE2 methyl ester], the “Maximum ocular irritation, Difference” value in the data set with eye [2] (1 μg) was found to be 1.08 ± -0.2. In addition, in the data set with eye [3] (1 ug), the “Intraocular pressure, Exp Eye” value was found to be 16.2 ± -1.3 mmHg and the “Maximum reduction of intraocular pressure, Difference (Exp Eye vs Cont Eye)” value was -4.3 ± -0.7 mmHg. In the data set with eye [4], the “Maximum surface hyperemia of the eye, Difference (Exp Eye vs Cont Eye)” value is given as 0.6 ± -0.2 and the “Maximum surface hyperemia of the eye, Exp Eye” value was 1.2 ± -0.2.

With `CCCCC[C@H](O)/C=C/[C@H]1[C@H](O)CC(=O)[C@@H]1C/C=C\CCCC(=O)OC(C)C` [PGE2 -isopropyl ester, reference compound], in the data set on eye [2] (1 μg), the “Ocular irritation grade (maximum irritation)” value amounted to 3 grade. For the same compound, in the data set with eye [4], the “Ocular surface hyperemia grade” value is at least 2.9 grade.

In the case of `CCCCC[C@H](O)/C=C/[C@@H]1[C@@H](C/C=C\CCCC(=O)OC(C)C)[C@@H](O)C[C@H]1O` [PGF2α -isopropyl ester, reference compound], the “Ocular irritation grade (maximum irritation)” value with eye [2] (1 μg) is listed as 3 grade. For the same compound, the “Ocular surface hyperemia grade” value with eye [4] was at least 2.9 grade.
